Assay results published in PubChem BioAssay AID1919005 (Molecular Pharmacology Branch, DTP, NCI, 2023).
pIC50: −log10 of the molar value.

Test system: 855422-203-R-J1-PDC complex spheroid growth
Assay: Anticancer human tumor 855422-203-R-J1-PDC patient-derived bladder carcinoma cell line growth inhibition [AhR]
Details: for pIC50: curve of first compound; for viability, T/C: stronger effect = lower value
Method in brief: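 Agents were dosed in half-log steps down from roughly clinical Cmax, or from 10 microM where Cmax was unknown, alone and with AhR antagonists. Read-out: percent test/control growth of tumor spheroids containing HUVEC and MSC stromal cells.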

[1] = second compound 0.1 µM, first compound 0.0316 µM
[2] = second compound 0.1 µM, first compound 0.1 µM
[3] = second compound 0.1 µM, first compound 0.316 µM
[4] = second compound 0.1 µM, first compound 1 µM
[5] = second compound 0.316 µM, first compound 0.0316 µM
[6] = second compound 0.316 µM, first compound 0.1 µM
[7] = second compound 0.316 µM, first compound 0.316 µM
[8] = second compound 0.316 µM, first compound 1 µM
[9] = second compound 1 µM, first compound 0.0316 µM
[10] = second compound 1 µM, first compound 0.1 µM
[11] = second compound 1 µM, first compound 0.316 µM
[12] = second compound 1 µM, first compound 1 µM
[13] = second compound 3.16 µM, first compound 0.0316 µM
[14] = second compound 3.16 µM, first compound 0.1 µM
[15] = second compound 3.16 µM, first compound 0.316 µM
[16] = second compound 3.16 µM, first compound 1 µM
[17] = second compound 10 µM, first compound 0.0316 µM
[18] = second compound 10 µM, first compound 0.1 µM
[19] = second compound 10 µM, first compound 0.316 µM
[20] = second compound 10 µM, first compound 1 µM
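Note: spheroids exposed to agents for seven days before readout.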
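Throughout, for viability, T/C: percent of DMSO vehicle control luminescence viability.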

Question: Which results are given for `COc1cc(Nc2ncc3c(n2)-c2ccc(Cl)cc2C(c2c(F)cccc2OC)=NC3)ccc1C(=O)O` + Cc1ccccc1N=Nc1ccc(NC(=O)c2ccnn2C)c(C)c1?
Answer: pIC50 (second compound 0.1 µM): < 5.00; pIC50 (second compound 0.316 µM): < 5.00; pIC50 (second compound 1 µM): < 5.00; pIC50 (second compound 3.16 µM): < 5.00; pIC50 (second compound 10 µM): < 5.00; viability, T/C [1]: 109%; viability, T/C [2]: 108%; viability, T/C [3]: 88.9%; viability, T/C [4]: 85.1%; viability, T/C (second compound 0.1 µM, first compound 3.16 µM): 77.7%; viability, T/C (second compound 0.1 µM, first compound 10 µM): 73%; viability, T/C [5]: 105%; viability, T/C [6]: 109%; viability, T/C [7]: 93.4%; viability, T/C [8]: 92.8%; viability, T/C (second compound 0.316 µM, first compound 3.16 µM): 85.9%; viability, T/C (second compound 0.316 µM, first compound 10 µM): 68.7%; viability, T/C [9]: 114%; viability, T/C [10]: 113%; viability, T/C [11]: 98.7%; viability, T/C [12]: 84.3%; viability, T/C (second compound 1 µM, first compound 3.16 µM): 78.1%; viability, T/C (second compound 1 µM, first compound 10 µM): 76.8%; viability, T/C [13]: 105%; viability, T/C [14]: 106%; viability, T/C [15]: 87.3%; viability, T/C [16]: 79.4%; viability, T/C (second compound 3.16 µM, first compound 3.16 µM): 79.5%; viability, T/C (second compound 3.16 µM, first compound 10 µM): 68.3%; viability, T/C [17]: 87.8%; viability, T/C [18]: 88.8%; viability, T/C [19]: 81.7%; viability, T/C [20]: 89.7%; viability, T/C (second compound 10 µM, first compound 3.16 µM): 79.2%; viability, T/C (second compound 10 µM, first compound 10 µM): 71.2%

Question: With `Nc1ncn(C2CC(O)C(CO)O2)c(=O)n1` (stereo not given) + Cc1cncc(-c2nc(NCCc3c[nH]c4ccccc34)c3ncn(C(C)C)c3n2)c1 as the molecule, how does the pIC50 (second compound 0.1 µM) read?
Answer: Its pIC50 is < 6.00.

Question: And the pIC50 (second compound 0.316 µM)?
Answer: The pIC50 was < 6.00.

Question: And the pIC50 (second compound 1 µM)?
Answer: The pIC50 was < 6.00.

Question: And the pIC50 (second compound 3.16 µM)?
Answer: Its pIC50 is < 6.00.

Question: And the pIC50 (second compound 10 µM)?
Answer: The pIC50 was > 8.50.

Question: And the viability, T/C (second compound 0.1 µM, first compound 0.00316 µM)?
Answer: The viability, T/C was 99.1%.

Question: What about the viability, T/C (second compound 0.1 µM, first compound 0.01 µM) of the same molecule?
Answer: Its viability, T/C is 94.1%.

Question: And the viability, T/C [1]?
Answer: The viability, T/C was 88.8%.

Question: And the viability, T/C [2]?
Answer: The viability, T/C was 86.2%.

Question: What about the viability, T/C [3] of the same molecule?
Answer: The viability, T/C was 82%.

Question: And the viability, T/C [4]?
Answer: The viability, T/C was 77.5%.

Question: And the viability, T/C (second compound 0.316 µM, first compound 0.00316 µM)?
Answer: The viability, T/C was 86.8%.

Question: And the viability, T/C (second compound 0.316 µM, first compound 0.01 µM)?
Answer: Its viability, T/C is 88.5%.

Question: What about the viability, T/C [5] of the same molecule?
Answer: The viability, T/C was 81.9%.

Question: And the viability, T/C [6]?
Answer: Its viability, T/C is 79.8%.

Question: What about the viability, T/C [7] of the same molecule?
Answer: Its viability, T/C is 82.5%.

Question: And the viability, T/C [8]?
Answer: Its viability, T/C is 75%.

Question: And the viability, T/C (second compound 1 µM, first compound 0.00316 µM)?
Answer: Its viability, T/C is 91.9%.

Question: And the viability, T/C (second compound 1 µM, first compound 0.01 µM)?
Answer: The viability, T/C was 90%.

Question: And the viability, T/C [9]?
Answer: Its viability, T/C is 85.5%.

Question: And the viability, T/C [10]?
Answer: Its viability, T/C is 86.4%.

Question: And the viability, T/C [11]?
Answer: The viability, T/C was 82.4%.

Question: And the viability, T/C [12]?
Answer: Its viability, T/C is 74.6%.

Question: And the viability, T/C (second compound 3.16 µM, first compound 0.00316 µM)?
Answer: The viability, T/C was 79.9%.

Question: What about the viability, T/C (second compound 3.16 µM, first compound 0.01 µM) of the same molecule?
Answer: The viability, T/C was 86.5%.

Question: And the viability, T/C [13]?
Answer: The viability, T/C was 79.3%.

Question: And the viability, T/C [14]?
Answer: Its viability, T/C is 71.4%.

Question: And the viability, T/C [15]?
Answer: Its viability, T/C is 82%.

Question: What about the viability, T/C [16] of the same molecule?
Answer: Its viability, T/C is 69%.

Question: What about the viability, T/C (second compound 10 µM, first compound 0.00316 µM) of the same molecule?
Answer: Its viability, T/C is 10.8%.

Question: And the viability, T/C (second compound 10 µM, first compound 0.01 µM)?
Answer: Its viability, T/C is 6.45%.

Question: And the viability, T/C [17]?
Answer: Its viability, T/C is 2.54%.

Question: And the viability, T/C [18]?
Answer: The viability, T/C was 7.37%.

Question: And the viability, T/C [19]?
Answer: Its viability, T/C is 9.7%.

Question: What about the viability, T/C [20] of the same molecule?
Answer: Its viability, T/C is 7.88%.

Question: How did the pIC50 (second compound 0.1 µM) turn out when `O=C(C=Cn1cnc(-c2cc(C(F)(F)F)cc(C(F)(F)F)c2)n1)NNc1cnccn1` + Cc1cncc(-c2nc(NCCc3c[nH]c4ccccc34)c3ncn(C(C)C)c3n2)c1 was run?
Answer: Its pIC50 is 6.58.

Question: What about the pIC50 (second compound 0.316 µM) of the same molecule?
Answer: The pIC50 was 6.61.

Question: And the pIC50 (second compound 1 µM)?
Answer: Its pIC50 is 6.61.

Question: And the pIC50 (second compound 3.16 µM)?
Answer: The pIC50 was 6.70.

Question: And the pIC50 (second compound 10 µM)?
Answer: The pIC50 was > 8.02.

Question: What about the viability, T/C (second compound 0.1 µM, first compound 0.00949 µM) of the same molecule?
Answer: Its viability, T/C is 101%.

Question: What about the viability, T/C (second compound 0.1 µM, first compound 0.03 µM) of the same molecule?
Answer: The viability, T/C was 102%.

Question: What about the viability, T/C (second compound 0.1 µM, first compound 0.0949 µM) of the same molecule?
Answer: Its viability, T/C is 162%.

Question: What about the viability, T/C (second compound 0.1 µM, first compound 0.3 µM) of the same molecule?
Answer: Its viability, T/C is 40.8%.

Question: And the viability, T/C (second compound 0.1 µM, first compound 0.949 µM)?
Answer: Its viability, T/C is 30.8%.

Question: What about the viability, T/C (second compound 0.1 µM, first compound 3 µM) of the same molecule?
Answer: Its viability, T/C is 22.6%.

Question: What about the viability, T/C (second compound 0.316 µM, first compound 0.00949 µM) of the same molecule?
Answer: Its viability, T/C is 108%.

Question: And the viability, T/C (second compound 0.316 µM, first compound 0.03 µM)?
Answer: The viability, T/C was 116%.

Question: And the viability, T/C (second compound 0.316 µM, first compound 0.0949 µM)?
Answer: The viability, T/C was 128%.

Question: And the viability, T/C (second compound 0.316 µM, first compound 0.3 µM)?
Answer: Its viability, T/C is 36.3%.

Question: What about the viability, T/C (second compound 0.316 µM, first compound 0.949 µM) of the same molecule?
Answer: The viability, T/C was 26.3%.

Question: And the viability, T/C (second compound 0.316 µM, first compound 3 µM)?
Answer: Its viability, T/C is 23.3%.

Question: What about the viability, T/C (second compound 1 µM, first compound 0.00949 µM) of the same molecule?
Answer: Its viability, T/C is 95.3%.

Question: And the viability, T/C (second compound 1 µM, first compound 0.03 µM)?
Answer: The viability, T/C was 114%.

Question: What about the viability, T/C (second compound 1 µM, first compound 0.0949 µM) of the same molecule?
Answer: Its viability, T/C is 118%.

Question: And the viability, T/C (second compound 1 µM, first compound 0.3 µM)?
Answer: The viability, T/C was 37.1%.

Question: What about the viability, T/C (second compound 1 µM, first compound 0.949 µM) of the same molecule?
Answer: The viability, T/C was 30.3%.

Question: What about the viability, T/C (second compound 1 µM, first compound 3 µM) of the same molecule?
Answer: The viability, T/C was 25.3%.

Question: And the viability, T/C (second compound 3.16 µM, first compound 0.00949 µM)?
Answer: Its viability, T/C is 83.8%.

Question: And the viability, T/C (second compound 3.16 µM, first compound 0.03 µM)?
Answer: The viability, T/C was 95.4%.

Question: And the viability, T/C (second compound 3.16 µM, first compound 0.0949 µM)?
Answer: Its viability, T/C is 106%.

Question: And the viability, T/C (second compound 3.16 µM, first compound 0.3 µM)?
Answer: Its viability, T/C is 22.2%.

Question: And the viability, T/C (second compound 3.16 µM, first compound 0.949 µM)?
Answer: Its viability, T/C is 32.2%.

Question: What about the viability, T/C (second compound 3.16 µM, first compound 3 µM) of the same molecule?
Answer: Its viability, T/C is 23.9%.

Question: And the viability, T/C (second compound 10 µM, first compound 0.00949 µM)?
Answer: The viability, T/C was 11.4%.

Question: And the viability, T/C (second compound 10 µM, first compound 0.03 µM)?
Answer: The viability, T/C was 7.81%.

Question: And the viability, T/C (second compound 10 µM, first compound 0.0949 µM)?
Answer: The viability, T/C was 6.35%.

Question: And the viability, T/C (second compound 10 µM, first compound 0.3 µM)?
Answer: Its viability, T/C is 7.34%.

Question: What about the viability, T/C (second compound 10 µM, first compound 0.949 µM) of the same molecule?
Answer: Its viability, T/C is 7.72%.

Question: And the viability, T/C (second compound 10 µM, first compound 3 µM)?
Answer: The viability, T/C was 8.99%.
